Results published in article PMC8252455, “Prediction of a clinically effective dose of THY1773, a novel V 1B receptor antagonist, based on preclinical data” (Biopharmaceutics & Drug Disposition, 2021).

Columns and labels:
[1] = Blood-to-plasma ratio in dog whole blood; format: in vitro ADME; conditions: 1 μmol/L
Description: The blood‐to‐plasma ratios of THY1773 were analyzed using pooled fresh whole blood (anticoagulant: EDTA‐2K) and control plasma separated from fresh whole blood in parallel from rats, dogs, and humans. Whole blood and control plasma containing 1 μmol/L THY1773 were incubated at 37°C for 30 min in a shaking water bath. The incubated whole blood was centrifuged at 2000 × g for 10 min at 4°C to obtain plasma. An aliquot of each plasma sample (i.e., isolated plasma from incubated whole blood and control plasma) was mixed with 8 volumes of acetonitrile/methanol (9:1, vol/vol) containing the IS. After centrifugation at 3974 × g for 10 min at 4°C, the supernatant was subjected to liquid chromatography/tandem mass spectrometry (LC‐MS/MS) analysis. The blood‐to‐plasma ratio was calculated by dividing the […].

[2] = target: T1, pituitary V1B receptor (Homo sapiens, UniProt P47901); test: Phase 1 RO study using PET; format: in vivo; conditions: unpublished data
T1 construct: from tissue; host or cells: pituitary gland of human subjects, in vivo PET
T1 sequence (P47901 1-424): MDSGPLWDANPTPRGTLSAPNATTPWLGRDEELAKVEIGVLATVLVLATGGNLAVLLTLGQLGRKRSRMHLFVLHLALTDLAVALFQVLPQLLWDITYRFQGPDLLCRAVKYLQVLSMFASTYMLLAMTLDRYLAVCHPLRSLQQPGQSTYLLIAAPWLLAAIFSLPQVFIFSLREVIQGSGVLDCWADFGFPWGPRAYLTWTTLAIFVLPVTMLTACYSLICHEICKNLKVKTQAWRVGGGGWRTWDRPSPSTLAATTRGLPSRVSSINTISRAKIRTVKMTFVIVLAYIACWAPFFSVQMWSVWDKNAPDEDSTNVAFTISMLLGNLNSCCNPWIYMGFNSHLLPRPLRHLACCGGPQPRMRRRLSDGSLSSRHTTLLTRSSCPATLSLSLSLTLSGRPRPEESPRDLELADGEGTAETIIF

[3] = Physicochemical properties (Log P, pKa); conditions: experimental data
Excerpt: TABLE 2 Human PBPK/RO model input parameters for THY1773 | column: Value

[4] = test system: anterior pituitary V1B receptor; design: method as in Kamiya et al., 2020; conditions: rats; ref Kamiya et al., 2020; cited from earlier work
[5] = test system: depressive-like behavior; design: method as in Kamiya et al., 2020; conditions: ref Kamiya et al., 2020; cited from earlier work

## CC(C)NC(=O)Cn1c(-c2cccc(Cl)c2)nn(-c2ccc(CCN3CCOCC3)cc2)c1=O [THY1773]
[1]
  Blood-to-plasma ratio: 0.846
[2]; 10 mg
  V1B RO at steady state (PET): 55.3%
[2]; 50 mg
  V1B RO at steady state (PET): 75.1%
[2]; human PET
  In vivo EC50 for V1B RO compared with in vitro Ki for human V1B receptor: comparable (within twofold)
[3]
  Log P: 3.17
[3]; monoprotic base
  pKa: 6.85
[4]
  Occupancy of anterior pituitary V1B receptor after oral administration: dose‐dependently
[5]
  Effect on depressive-like behavior induced by repeated corticosterone injection: significantly improved
